Legend:
[1] = target: T1, human recombinant adrenergic α1D receptor (Homo sapiens, UniProt P25100); assay: Adrenergic α1D radioligand binding ([3H]Prozosin); parameters: Inhibition of ligand binding, Adren. alpha1D: concentration or dose not given beside the values; conditions: for Inhibition of ligand binding, Adren. alpha1D: percent inhibition of specific binding; for inhibition at 1 µM: compounds screened at 1 μM, read-out: Inhibition of ligand binding, Adren. alpha1D (percent inhibition of specific binding)
T1 construct: expressed in transfected cells; host or cells: HEK-293 cells
T1 sequence (P25100 1-572): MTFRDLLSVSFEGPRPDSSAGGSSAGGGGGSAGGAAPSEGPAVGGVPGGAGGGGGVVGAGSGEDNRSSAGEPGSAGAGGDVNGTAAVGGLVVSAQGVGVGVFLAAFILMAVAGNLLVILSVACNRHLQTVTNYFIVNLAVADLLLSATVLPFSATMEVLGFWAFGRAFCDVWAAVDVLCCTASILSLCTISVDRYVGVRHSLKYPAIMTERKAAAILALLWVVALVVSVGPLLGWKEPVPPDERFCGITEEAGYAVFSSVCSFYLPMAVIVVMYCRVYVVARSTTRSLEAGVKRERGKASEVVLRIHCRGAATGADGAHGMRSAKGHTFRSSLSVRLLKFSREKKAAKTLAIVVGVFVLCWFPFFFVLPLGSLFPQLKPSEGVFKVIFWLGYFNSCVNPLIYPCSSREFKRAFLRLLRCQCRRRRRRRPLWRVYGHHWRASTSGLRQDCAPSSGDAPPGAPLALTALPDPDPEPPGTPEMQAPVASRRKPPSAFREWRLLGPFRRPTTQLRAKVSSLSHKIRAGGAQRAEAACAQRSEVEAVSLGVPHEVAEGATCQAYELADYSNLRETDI
Method: Compounds of invention were incubated with 0.6 nM [^3H]Prozosin for 60 minutes at 25° C. Non-specific binding was estimated in the presence of 10 μM phentolamine. Receptor proteins were filtered and washed, the filters were then counted to determine [^3H]Prozosin specifically bound. […] Biochemical assay results are presented as the percent inhibition of specific binding in Table 6.

[2] = target: T2, human recombinant adrenergic α2B receptor (Homo sapiens, UniProt P18089); assay: Adrenergic α2B radioligand binding ([3H]Rauwolscine); parameters: Inhibition of ligand binding, Adren. alpha2B: concentration or dose not given beside the values; conditions: for Inhibition of ligand binding, Adren. alpha2B: percent inhibition of specific binding; for inhibition at 1 µM: compounds screened at 1 μM, read-out: Inhibition of ligand binding, Adren. alpha2B (percent inhibition of specific binding)
T2 construct: expressed in transfected cells; host or cells: CHO-K1 cells
T2 sequence (P18089 1-450): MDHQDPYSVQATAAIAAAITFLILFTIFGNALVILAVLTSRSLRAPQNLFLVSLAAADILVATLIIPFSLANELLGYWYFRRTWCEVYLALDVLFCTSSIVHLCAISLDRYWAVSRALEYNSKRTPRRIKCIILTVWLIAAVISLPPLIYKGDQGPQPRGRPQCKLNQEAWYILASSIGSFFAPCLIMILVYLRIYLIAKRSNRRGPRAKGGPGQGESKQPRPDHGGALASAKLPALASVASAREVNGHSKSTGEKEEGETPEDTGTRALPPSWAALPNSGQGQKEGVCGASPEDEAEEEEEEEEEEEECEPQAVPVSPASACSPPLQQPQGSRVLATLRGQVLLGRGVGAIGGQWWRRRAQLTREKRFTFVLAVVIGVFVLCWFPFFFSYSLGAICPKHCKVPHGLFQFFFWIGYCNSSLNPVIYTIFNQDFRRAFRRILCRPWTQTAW
Method: To evaluate in radioligand binding assays the activity of compounds of the invention, human recombinant adrenergic α2B receptor expressed in Chinese hamster ovary (CHO-K1) cells (Uhlen S et al. Eur J. Pharmacol. 343(1):93, 1998) in a modified Tris-HCl buffer (50 mM Tris-HCl, pH 7.4, 12.5 mM MgCl2, 1 mM EDTA, 0.2% BSA) was used. Compounds of the invention were incubated with 2.5 nM [^3H]Rauwolscine for 60 minutes at 25° C. Non-specific binding was estimated in the presence of 10 μM Prozosin. Receptor proteins were filtered and washed, the filters were then counted to determine [^3H]Rauwolscine specifically bound. […] Biochemical assay results are presented as the percent inhibition of specific binding in Table 6.

[3] = target: T3, human recombinant serotonin (5-Hydroxytryptamine) 5-HT2C receptor (Homo sapiens, UniProt P28335); assay: Serotonin 5-HT2C radioligand binding ([3H]Mesulergine); parameters: Inhibition of ligand binding, Ser. 5-HT2C: concentration or dose not given beside the values; conditions: for Inhibition of ligand binding, Ser. 5-HT2C: percent inhibition of specific binding; for inhibition at 1 µM: compounds screened at 1 μM, read-out: Inhibition of ligand binding, Ser. 5-HT2C (percent inhibition of specific binding)
T3 construct: expressed in transfected cells; host or cells: CHO-K1 cells
T3 sequence (P28335 33-458): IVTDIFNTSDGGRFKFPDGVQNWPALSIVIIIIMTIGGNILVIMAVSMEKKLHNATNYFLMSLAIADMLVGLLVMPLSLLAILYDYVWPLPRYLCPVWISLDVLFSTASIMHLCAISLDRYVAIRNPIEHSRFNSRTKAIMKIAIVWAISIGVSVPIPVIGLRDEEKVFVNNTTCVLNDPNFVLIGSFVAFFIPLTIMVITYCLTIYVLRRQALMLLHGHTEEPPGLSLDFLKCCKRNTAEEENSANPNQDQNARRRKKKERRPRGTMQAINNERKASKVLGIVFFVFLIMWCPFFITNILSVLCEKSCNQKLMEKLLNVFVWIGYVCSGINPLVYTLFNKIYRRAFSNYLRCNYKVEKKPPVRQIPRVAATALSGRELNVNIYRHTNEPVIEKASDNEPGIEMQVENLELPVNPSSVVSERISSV
Method: Compounds of the invention were incubated with 1 nM [^3H]Mesulergine for 60 minutes at 25° C. Non-specific binding was estimated in the presence of 1 μM Mianserin. Receptor proteins were filtered and washed, the filters were then counted to determine [^3H]Mesulergine specifically bound. […] Biochemical assay results are presented as the percent inhibition of specific binding in Table 6.

[4] = target: T4, human recombinant serotonin (5-Hydroxytryptamine) 5-HT6 receptor (Homo sapiens, UniProt P50406); assay: Serotonin 5-HT6 radioligand binding ([3H]LSD); parameters: Inhibition of ligand binding, Ser. 5-HT6: concentration or dose not given beside the values; conditions: for Inhibition of ligand binding, Ser. 5-HT6: percent inhibition of specific binding; for inhibition at 1 µM: compounds screened at 1 μM, read-out: Inhibition of ligand binding, Ser. 5-HT6 (percent inhibition of specific binding)
T4 construct: expressed in transfected cells; host or cells: human HeLa cells
Source text: Receptor proteins were filtered and washed, the filters were then counted to determine [3H]LSD specifically bound. […] Biochemical assay results are presented as the percent inhibition of specific binding in Table 6.

[5] = target: T5, Serotonin (5-Hydroxytryptamine) 5-HT7 (Homo sapiens, UniProt P34969); assay: Serotonin 5-HT7 radioligand binding ([3H]LSD); parameters: Inhibition of ligand binding, Ser. 5-HT7: concentration or dose not given beside the values; conditions: percent inhibition of specific binding
T5 construct: expressed in transfected cells; host or cells: CHO cells
Method: Lysergic acid diethylamide (LSD) for 2 hours at 25° C. […] Receptor proteins were filtered and washed, the filters were then counted to determine [^3H]LSD specifically bound. […] Biochemical assay results are presented as the percent inhibition of specific binding in Table 6.

T4 sequence (P50406 whole entry): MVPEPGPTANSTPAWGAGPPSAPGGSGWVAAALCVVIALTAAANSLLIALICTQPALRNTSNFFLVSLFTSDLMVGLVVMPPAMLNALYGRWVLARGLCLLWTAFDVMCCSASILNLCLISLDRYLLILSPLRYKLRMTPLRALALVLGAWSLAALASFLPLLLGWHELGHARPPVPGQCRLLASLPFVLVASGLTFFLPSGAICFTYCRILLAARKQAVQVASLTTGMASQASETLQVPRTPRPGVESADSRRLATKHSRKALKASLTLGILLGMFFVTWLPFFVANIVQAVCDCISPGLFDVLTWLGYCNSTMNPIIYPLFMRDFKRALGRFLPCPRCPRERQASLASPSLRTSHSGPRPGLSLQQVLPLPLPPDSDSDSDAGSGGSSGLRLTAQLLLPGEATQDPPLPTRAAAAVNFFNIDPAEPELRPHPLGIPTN
T5 sequence (P34969 whole entry): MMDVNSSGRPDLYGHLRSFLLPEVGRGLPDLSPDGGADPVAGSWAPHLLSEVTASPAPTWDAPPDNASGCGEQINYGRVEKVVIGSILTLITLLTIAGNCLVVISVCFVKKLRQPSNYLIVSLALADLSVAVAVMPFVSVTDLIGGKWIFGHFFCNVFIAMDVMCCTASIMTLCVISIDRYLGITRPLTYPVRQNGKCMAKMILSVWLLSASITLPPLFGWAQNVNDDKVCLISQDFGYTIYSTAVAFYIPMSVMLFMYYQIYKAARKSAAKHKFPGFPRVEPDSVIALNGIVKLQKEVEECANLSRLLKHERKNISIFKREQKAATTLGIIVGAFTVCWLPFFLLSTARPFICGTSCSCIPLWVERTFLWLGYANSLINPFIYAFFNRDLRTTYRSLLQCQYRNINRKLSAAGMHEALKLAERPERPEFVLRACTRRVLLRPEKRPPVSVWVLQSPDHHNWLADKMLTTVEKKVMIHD

In the case of `CN1CCc2c(c3ccccc3n2CCc2ccncc2)C1` [Compound 10, 2,3,4,5-tetrahydro-2-methyl-5-(2-(pyridin-4-yl)ethyl)-1H-pyrido[4,3-b]indole], the “Inhibition of ligand binding, Adren. alpha1D” value (from here on “Inhibition … Adren. alpha1D”) [1] is reported as 19%, the “Inhibition of ligand binding, Adren. alpha2B” value (“Inhibition … Adren. alpha2B” below) [2] is reported as 92% and the “Inhibition of ligand binding, Ser. 5-HT2C” value (shortened to “Inhibition … Ser. 5-HT2C”) [3] is reported as 53%. For the same compound, the “Inhibition of ligand binding, Ser. 5-HT6” value [4] was 32% and the “Inhibition of ligand binding, Ser. 5-HT7” value [5] was 73%.

For `CCOC(=O)N1CCc2c(c3cc(-c4cccnc4)ccc3n2CCc2ccc(C)nc2)C1` [Compound 19, ethyl 3,4-dihydro-5-(2-(6-methylpyridin-3-yl)ethyl)-8-(pyridin-3-yl)-1H-pyrido[4,3-b]indole-2(5H)-carboxylate], the “Inhibition … Adren. alpha1D” value [1] was −6%, the “Inhibition … Adren. alpha2B” value [2] was −8% and the “Inhibition … Ser. 5-HT2C” value [3] was −17%. For the same compound, the “Inhibition of ligand binding, Ser. 5-HT6” value [4] was −5% and the “Inhibition of ligand binding, Ser. 5-HT7” value [5] was 12%.

In the case of `CCN1CCc2c(c3ccccc3n2CCc2ccccc2)C1` [Compound 4, 2-ethyl-2,3,4,5-tetrahydro-5-phenethyl-1H-pyrido[4,3-b]indole], the “Inhibition … Adren. alpha1D” value [1] is reported as 56%, the “Inhibition … Adren. alpha2B” value [2] is reported as 106% and the “Inhibition … Ser. 5-HT2C” value [3] is reported as 94%. For the same compound, the “Inhibition of ligand binding, Ser. 5-HT6” value [4] was 82% and the “Inhibition of ligand binding, Ser. 5-HT7” value [5] was 88%.

With `Cc1ccc(Cn2c3c(c4ccccc42)CN(C)CC3)cn1` [Compound 17, 2,3,4,5-tetrahydro-2-methyl-5-((6-methylpyridin-3-yl)methyl)-1H-pyrido[4,3-b]indole] the “Inhibition … Adren. alpha1D” value [1] was −7%, the “Inhibition … Adren. alpha2B” value [2] was 9% and the “Inhibition … Ser. 5-HT2C” value [3] was 8%. The “Inhibition of ligand binding, Ser. 5-HT6” value [4] was 0% and the “Inhibition of ligand binding, Ser. 5-HT7” value [5] was 7%.

With `Cc1ccc(CCn2c3c(c4ccccc42)CN(C)CC3)cc1` [Compound 1, 2,3,4,5-tetrahydro-2-methyl-5-(4-methylphenethyl)-1H-pyrido[4,3-b]indole] the “Inhibition … Adren. alpha1D” value [1] was 76%, the “Inhibition … Ser. 5-HT2C” value [3] was 95% and the “Inhibition of ligand binding, Ser. 5-HT6” value [4] was 87%. For the same compound, the “Inhibition of ligand binding, Ser. 5-HT7” value [5] was 98%.

`Cc1ccc2c(c1)c1c(n2CCc2ccncc2)CCN(C)C1` [Compound 22, 2,3,4,5-tetrahydro-2,8-dimethyl-5-(2-(pyridin-4-yl)ethyl)-1H-pyrido[4,3-b]indole] was tested, and the “Inhibition … Adren. alpha1D” value [1] was 83%, the “Inhibition … Adren. alpha2B” value [2] was 105% and the “Inhibition … Ser. 5-HT2C” value [3] was 87%. The “Inhibition of ligand binding, Ser. 5-HT7” value [5] was 99%.

For `Cc1ccc2c(c1)c1c(n2CCc2ccccc2F)CCN(C)C1` [Compound 34, 5-(2-fluorophenethyl)-2,3,4,5-tetrahydro-2,8-dimethyl-1H-pyrido[4,3-b]indole], the “Inhibition … Adren. alpha1D” value [1] was 76%, the “Inhibition … Ser. 5-HT2C” value [3] was 96% and the “Inhibition of ligand binding, Ser. 5-HT6” value [4] was 104%. For the same compound, the “Inhibition of ligand binding, Ser. 5-HT7” value [5] was 97%.

In the case of `Cc1ccc2c(c1)c1c(n2CCc2ccccn2)CCN(C)C1` [Compound 21, 2,3,4,5-tetrahydro-2,8-dimethyl-5-(2-(pyridin-2-yl)ethyl)-1H-pyrido[4,3-b]indole], the “Inhibition … Adren. alpha1D” value [1] is reported as 76%, the “Inhibition … Adren. alpha2B” value [2] is reported as 114% and the “Inhibition … Ser. 5-HT2C” value [3] is reported as 87%. For the same compound, the “Inhibition of ligand binding, Ser. 5-HT6” value [4] was 79%.

For `CN1CCc2c(c3ncccc3n2CCc2ccccn2)C1` [Compound 484, 9-aza-2-methyl-5-(2-(pyridin-2-yl)ethyl)-2,3,4,5-tetrahydro-1H-pyrido[4,3-b]indole], the inhibition at 1 µM [1] was 10%, the inhibition at 1 µM [2] was 30% and the inhibition at 1 µM [3] was 31%. For the same compound, the inhibition at 1 µM [4] was 14%.

With `CCN1CCc2c(c3cc(C)ccc3n2CCc2ccncc2)C1` [Compound 27, 2-ethyl-2,3,4,5-tetrahydro-8-methyl-5-(2-(pyridin-4-yl)ethyl)-1H-pyrido[4,3-b]indole] the “Inhibition … Adren. alpha1D” value [1] was 63%, the “Inhibition … Adren. alpha2B” value [2] was 100% and the “Inhibition … Ser. 5-HT2C” value [3] was 29%. The “Inhibition of ligand binding, Ser. 5-HT6” value [4] was 38%.

For `Cc1ccc2c(c1)c1c(n2CCc2ccc(C)nc2)CCNC1` [Compound 230, 2,3,4,5-tetrahydro-8-methyl-5-(2-(6-methylpyridin-3-yl)ethyl)-1H-pyrido[4,3-b]indole], the “Inhibition … Adren. alpha1D” value [1] was 75%, the “Inhibition … Adren. alpha2B” value [2] was 104% and the “Inhibition … Ser. 5-HT2C” value [3] was 36%. For the same compound, the “Inhibition of ligand binding, Ser. 5-HT6” value [4] was 45%.

`CN1CCc2c(c3cc(Cl)ccc3n2CC(=O)N2CC[S+]([O-])CC2)C1` [Compound 296, 2-(8-Chloro-2-methyl-1,2,3,4-tetrahydro-pyrido[4,3-b]indol-5-yl)-1-(1-oxo-1l4-thiomorpholin-4-yl)-ethanone] was tested, and the “Inhibition … Adren. alpha1D” value [1] was 3%, the “Inhibition … Adren. alpha2B” value [2] was −8% and the “Inhibition … Ser. 5-HT2C” value [3] was 2%. For the same compound, the “Inhibition of ligand binding, Ser. 5-HT6” value [4] was 3%.

With `Cc1ccc2c(c1)c1c(n2CCCc2ccc(C(F)(F)F)nc2)CCN(C)C1` [Compound 331, 5-(3-(6-(trifluoromethyl)pyridin-3-yl)propyl)-2,3,4,5-tetrahydro-2,8-dimethyl-1H-pyrido[4,3-b]indole] the “Inhibition … Adren. alpha1D” value [1] was 63%, the “Inhibition … Adren. alpha2B” value [2] was 105% and the “Inhibition … Ser. 5-HT2C” value [3] was 72%. For the same compound, the “Inhibition of ligand binding, Ser. 5-HT6” value [4] was 100%.

`CN1CCc2c(c3cc(I)ccc3n2CC(=O)N2CCCCC2)C1` [Compound 486, 2-(1,2,3,4-tetrahydro-8-iodo-2-methylpyrido[4,3-b]indol-5-yl)-1-(piperidin-1-yl)ethanone] gave an inhibition at 1 µM [1] of 22%, an inhibition at 1 µM [2] of 7% and an inhibition at 1 µM [3] of 31%. The inhibition at 1 µM [4] was 14%.

From patent publication US9096591B2, “Tetracyclic compounds” (Medivation Technologies, Inc., priority 2007, dated 2015)
